Laboratory results: ChEMBL document CHEMBL1129776, “Design of dual-acting thromboxane antagonist-synthase inhibitors by a mutual prodrug approach” (Bioorg Med Chem Lett, 1996)
“And” between values parts separate entries of the source, which are not always exact repeats. Identical values can stand only once.

Legend:
Thromboxane A2 receptor = molecular target: T1, Thromboxane A2 receptor (Homo sapiens, UniProt P21731); assay: Thromboxane (TXA2) receptor antagonist activity using human platelet; format: functional; conditions: for Kb: read-out: pA2 (converted)
T1 sequence (P21731 whole entry): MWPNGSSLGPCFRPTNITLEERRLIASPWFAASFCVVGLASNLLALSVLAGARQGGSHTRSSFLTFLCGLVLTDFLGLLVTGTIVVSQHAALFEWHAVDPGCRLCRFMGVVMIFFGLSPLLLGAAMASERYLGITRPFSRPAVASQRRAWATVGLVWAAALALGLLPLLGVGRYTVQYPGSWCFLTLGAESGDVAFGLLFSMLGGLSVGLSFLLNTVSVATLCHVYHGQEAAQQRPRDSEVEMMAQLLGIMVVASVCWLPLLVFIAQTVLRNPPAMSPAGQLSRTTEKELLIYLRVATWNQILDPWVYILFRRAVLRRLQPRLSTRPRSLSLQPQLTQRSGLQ

Thromboxane-A synthase = molecular target: T2, Thromboxane-A synthase (Homo sapiens, UniProt P24557); assay: Compound was tested for thromboxane TXA2 synthase inhibitory activity using human platelet
T2 sequence (P24557 whole entry): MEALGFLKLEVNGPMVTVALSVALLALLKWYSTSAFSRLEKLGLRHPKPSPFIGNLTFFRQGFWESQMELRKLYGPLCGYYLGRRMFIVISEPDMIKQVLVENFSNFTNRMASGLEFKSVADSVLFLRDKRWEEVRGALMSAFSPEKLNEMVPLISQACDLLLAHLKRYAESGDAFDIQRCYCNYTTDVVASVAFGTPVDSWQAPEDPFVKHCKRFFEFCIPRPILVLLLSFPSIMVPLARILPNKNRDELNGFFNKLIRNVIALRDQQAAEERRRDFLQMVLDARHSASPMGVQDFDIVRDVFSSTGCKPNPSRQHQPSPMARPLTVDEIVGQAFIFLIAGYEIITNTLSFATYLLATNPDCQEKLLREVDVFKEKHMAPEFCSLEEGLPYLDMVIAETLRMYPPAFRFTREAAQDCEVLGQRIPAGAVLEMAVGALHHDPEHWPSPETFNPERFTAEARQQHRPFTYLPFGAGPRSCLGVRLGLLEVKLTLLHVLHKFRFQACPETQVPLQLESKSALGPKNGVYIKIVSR

[1] = molecular target: T3, Thromboxane-A synthase (Homo sapiens) (UniProt P24557); assay: Compound was evaluated for inhibition of TXA2 synthase by measuring collagen stimulated TXB2 production in the blood samples after 2 hr time at a dose of 0.05 mg/kg; format: functional, organism-based; set-up: dose 0.05 mg/kg; conditions: Canis lupus familiaris
T3 sequence (whole entry): T2 sequence (P24557 whole entry)

Canis familiaris [2] = assay: Compound was tested ex vivo for plasma concentration ratio at 8 hr in conscious dogs at specified time intervals at a dose of 0.05 mg/kg.; format: functional, Canis lupus familiaris
[3] = molecular target: T3, Thromboxane-A synthase (Homo sapiens); assay: Compound was evaluated for inhibition of TXA2 synthase by measuring collagen stimulated TXB2 production in the blood samples after 8 hr time at a dose of 0.05 mg/kg; format: functional, organism-based; set-up: dose 0.05 mg/kg; conditions: Canis lupus familiaris
Canis familiaris [4] = assay: Compound was tested ex vivo for plasma concentration ratio at 2 hr in conscious dogs at specified time intervals at a dose of 0.05 mg/kg.; format: functional, Canis lupus familiaris
Canis familiaris [5] = assay: Compound was tested for plasma concentration ratio at 2 hr in conscious dogs at specified time intervals at a dose of 0.05 mg/kg.; format: functional, Canis lupus familiaris
Canis familiaris [6] = assay: Compound was tested for plasma concentration ratio at 8 hr in conscious dogs at specified time intervals at a dose of 0.05 mg/kg.; format: functional, Canis lupus familiaris
Canis familiaris [7] = assay: Compound was tested for plasma concentration ratio at 2 hr in conscious dogs at specified time intervals at a dose of 1.0 mg/kg.; format: functional, Canis lupus familiaris
Canis familiaris [8] = assay: Compound was tested for plasma concentration ratio at 8 hr in conscious dogs at specified time intervals at a dose of 1.0 mg/kg.; format: functional, Canis lupus familiaris
[9] = molecular target: T3, Thromboxane-A synthase (Homo sapiens); assay: Compound was evaluated for inhibition of TXA2 synthase by measuring collagen stimulated TXB2 production in the blood samples after 2 hr time at a dose of 1.0 mg/kg; format: functional, organism-based; set-up: dose 1 mg/kg; conditions: Canis lupus familiaris
[10] = molecular target: T3, Thromboxane-A synthase (Homo sapiens); assay: (§1) Compound was evaluated for inhibition of TXA2 synthase by measuring collagen stimulated TXB2 production in the blood samples after 8 hr time at a dose of 1.0 mg/kg; format: functional, organism-based; set-up: dose 1 mg/kg; conditions: Canis lupus familiaris
[11] = molecular target: T3, Thromboxane-A synthase (Homo sapiens); assay: as §1; format: functional, organism-based; set-up: dose 1 mg/kg; conditions: Canis lupus familiaris; remark: listed apart in the source

Row | SMILES | Kb (Thromboxane A2 receptor) [µM] | IC50 (Thromboxane-A synthase) [µM] | inhibition [1] [%] | inhibition [3] [%] | also measured
1 | N#Cc1ccc([C@H]2OC[C@@H](C/C=C\CCC(=O)Oc3ccccc3OC(=O)CC/C=C\C[C@@H]3CO[C@H](c4ccccc4Cl)O[C@@H]3c3ccccc3O)[C@@H](c3cccnc3)O2)cc1 (stereo in doubt; 16 (-)) [listing 1 of 2 here] | – | – | 31 | 64 | –
2 | N#Cc1ccc([C@H]2OC[C@@H](C/C=C\CCC(=O)Oc3ccccc3OC(=O)CC/C=C\C[C@@H]3CO[C@H](c4ccc(C#N)cc4)O[C@@H]3c3ccccc3O)[C@@H](c3cccnc3)O2)cc1 | 10 | > 10 | 68 | < 50 | Ratio (Canis familiaris [5]): 587; Ratio (Canis familiaris [6]): 283
3 | N#Cc1ccc([C@H]2OC[C@@H](C/C=C\CCC(=O)Oc3ccccc3OC(=O)CC/C=C\C[C@@H]3CO[C@H](c4ccccc4Cl)O[C@@H]3c3ccccc3O)[C@@H](c3cccnc3)O2)cc1 (stereo in doubt; 15) [listing 1 of 2 here] | – | > 10 | – | – | pA2 (Thromboxane A2 receptor): 5; Ratio (Canis familiaris [5]; 0.05 mg/kg): 140; Ratio (Canis familiaris [6]; 0.05 mg/kg): 170
4 | N#Cc1ccc([C@H]2OC[C@@H](C/C=C\CCC(=O)OCCCCCCOC(=O)CC/C=C\C[C@@H]3CO[C@H](c4ccc(C#N)cc4)O[C@@H]3c3ccccc3O)[C@@H](c3cccnc3)O2)cc1 | 10 | > 10 | – | – | –
5 | N#Cc1ccc([C@H]2OC[C@@H](C/C=C\CCC(=O)NCCCCCCNC(=O)CC/C=C\C[C@@H]3CO[C@H](c4ccc(C#N)cc4)O[C@@H]3c3ccccc3O)[C@@H](c3cccnc3)O2)cc1 | 10 | > 10 | – | – | –
6 | N#Cc1ccc([C@H]2OC[C@@H](C/C=C\CCC(=O)Oc3ccc(OC(=O)CC/C=C\C[C@@H]4CO[C@H](c5ccc(C#N)cc5)O[C@@H]4c4ccccc4O)cc3)[C@@H](c3cccnc3)O2)cc1 | 10 | > 10 | – | – | –

More lines, main results first:

Row | Kb (Thromboxane A2 receptor) [µM] | IC50 (Thromboxane-A synthase) [µM] | inhibition [1] [%] | inhibition [3] [%] | SMILES | also measured
7 | 10 | > 10 | – | – | N#Cc1ccc([C@H]2OC[C@@H](C/C=C\CCC(=O)NCCNC(=O)CC/C=C\C[C@@H]3CO[C@H](c4ccc(C#N)cc4)O[C@@H]3c3ccccc3O)[C@@H](c3cccnc3)O2)cc1 | –
8 | 0.00501 | > 10 | > 50 | > 50 | N#Cc1ccc([C@H]2OC[C@@H](C/C=C\CCC(=O)O)[C@@H](c3ccccc3O)O2)cc1 | Ratio (Canis familiaris [2]): 35; Ratio (Canis familiaris [4]): 60
9 | – | > 10 | > 50 | > 50 | O=C(O)CC/C=C\C[C@@H]1CO[C@H](c2ccccc2Cl)O[C@@H]1c1ccccc1O | –
10 | 1.26 | 0.02 | – | – | N#Cc1ccc([C@H]2OC[C@@H](C/C=C\CCC(=O)O)[C@@H](c3cccnc3)O2)cc1 | Ratio (Canis familiaris [7]): 1.4; Ratio (Canis familiaris [8]): 1.3; inhibition [9]: 97% and 84%; inhibition [10]: 84%; inhibition [11]: 93%
11 | – | – | 54 | 57 | N#Cc1ccc([C@H]2OC[C@@H](C/C=C\CCC(=O)Oc3ccccc3OC(=O)CC/C=C\C[C@@H]3CO[C@H](c4ccccc4Cl)O[C@@H]3c3ccccc3O)[C@@H](c3cccnc3)O2)cc1 (stereo in doubt; 15) [listing 2 of 2 here] | –
12 | > 10 | > 10 | – | – | N#Cc1ccc([C@H]2OC[C@@H](C/C=C\CCC(=O)OCCOC(=O)CC/C=C\C[C@@H]3CO[C@H](c4ccc(C#N)cc4)O[C@@H]3c3ccccc3O)[C@@H](c3cccnc3)O2)cc1 | –
13 | 10 | > 10 | – | – | N#Cc1ccc([C@H]2OC[C@@H](C/C=C\CCC(=O)Oc3ccccc3OC(=O)CC/C=C\C[C@@H]3CO[C@H](c4ccccc4Cl)O[C@@H]3c3ccccc3O)[C@@H](c3cccnc3)O2)cc1 (stereo in doubt; 16 (-)) [listing 2 of 2 here] | Ratio (Canis familiaris [5]; 0.05 mg/kg): 35; Ratio (Canis familiaris [6]; 0.05 mg/kg): 150
